According to ChEMBL document CHEMBL6120992, “Breviane Spiroditerpenoids with Anti-inflammatory and Antiviral Activities from Deep-Sea-Derived Fungus Penicillium sp. F59” (J Nat Prod, 2025):

Columns and labels:
RAW264.7 [1] = test: Antiinflammatory activity in LPS-induced mouse RAW264.7 cells assessed as inhibition of nitric oxide secretion at 20 microM incubated for 24 hrs by Griess reagent based assay relative to control; assay type: functional
SARS-CoV-2 [2] = test: Antiviral activity against SARS-CoV-2 Omicron BA.2 pseudovirus infected in human 293T/ACE2 cells assessed as virus inhibition at 50 microM incubated for 24 hrs by firefly luciferase assay relative to control; assay type: functional; conditions: Severe acute respiratory syndrome coronavirus 2, Omicron BA.2, 293T/ACE2
RAW264.7 [3] = test: Cytotoxicity against mouse RAW264.7 cells assessed as cell viability at 20 microM incubated for 24 hrs by CCK-8 method relative to control; assay type: functional; conditions: read-out: Activity
RAW264.7 [4] = test: Antiinflammatory activity in LPS-induced mouse RAW264.7 cells assessed as inhibition of nitric oxide secretion incubated for 24 hrs by Griess reagent based assay; assay type: functional, cell-based; conditions: RAW264.7, 24 h
[5] = Cytotoxicity against human 293T/ACE2 cells assessed as cell viability at 100 microM incubated for 24 hrs by CellTiter assay relative to control; assay type: functional; conditions: read-out: Activity
SARS-CoV-2 [6] = test: Antiviral activity against SARS-CoV-2 Omicron BA.2 pseudovirus infected in human 293T/ACE2 cells assessed as virus inhibition incubated for 24 hrs by firefly luciferase assay; assay type: functional, organism-based; conditions: Severe acute respiratory syndrome coronavirus 2, Omicron BA.2, 293T/ACE2, 24 h

| Structure (SMILES) | inhibition at 20 µM (RAW264.7 [1]) [%] | inhibition at 50 µM (SARS-CoV-2 [2]) [%] | viability at 20 µM (RAW264.7 [3]) [%] | IC50 (RAW264.7 [4]) [µM] | viability at 100 µM [5] [%] | IC50 (SARS-CoV-2 [6]) [µM] |
| --- | --- | --- | --- | --- | --- | --- |
| CC1=CC(=O)[C@@H]2[C@@]3(C)C=CC(=O)C(C)(C)[C@@H]3CC[C@@]2(C)[C@]12Cc1c(c(C)c(C)oc1=O)O2 | 87 | 23 | 100 | 5.3 | 95 |  |
| CC1=CC(=O)C=C[C@]2(C)[C@H]3C(O)C=C(C)[C@@]4(Cc5c(c(C)c(C)oc5=O)O4)[C@]3(C)CC[C@@H]12 (stereo partly drawn) | 94 | 0 | 98 | 9.2 | 93 |  |
| CC1=CC(=O)[C@@H]2[C@@]3(C)[C@H](O)CC(=O)C(C)(C)[C@@H]3CC[C@@]2(C)[C@]12Cc1c(c(C)c(C)oc1=O)O2 | 45 | 28 | 99 |  | 91 |  |
| CO[C@H]1c2c(c(C)c(C)oc2=O)O[C@]12C(C)=C[C@H]1O[C@H]3CC(=O)C=C(C)[C@@H]4CC[C@]2(C)[C@H]1[C@@]34C | 57 | 0 | 85 |  | 92 |  |
| CC(=O)/C(C)=C1\C[C@H]2O[C@@H](O)[C@]34CC[C@H]5C(C)=CC(=O)C[C@@H]6O[C@H](C=C(C)[C@@]23O1)[C@@H]4[C@@]65C | 38 | 0 | 100 |  | 90 |  |
| CC1=CC(=O)C[C@@H]2O[C@@H]3C=C(C)[C@@]45Oc6c(C)c(C)oc(=O)c6[C@@H]4O[C@@H](O)[C@]54CC[C@@H]1[C@@]2(C)[C@@H]34 | 35 | 0 | 100 |  | 99 |  |
| CC1=CC(=O)C[C@@H]2O[C@@H]3C=C(C)[C@]4(Oc5c(C)c(C)oc(=O)c5[C@@H]4O)[C@]4(C)CC[C@@H]1[C@@]2(C)[C@@H]34 | 52 | 43 | 100 |  | 92 |  |
| CC1=CC(=O)C=C[C@]2(C)[C@H]3[C@@H]4C=C(C)[C@@]56Oc7c(C)c(C)oc(=O)c7[C@@H]5O[C@@H](O4)[C@@]36CC[C@@H]12 | 98 | 95 | 93 | 1.4 | 94 | 8.5 |
| CC1=CC(=O)C[C@@H]2O[C@@H]3C=C(C)[C@@]45Oc6c(C)c(C)oc(=O)c6[C@@H]4OC[C@]54CC[C@@H]1[C@@]2(C)[C@@H]34 | 45 | 16 | 93 |  | 90 |  |
| CC1=CC(=O)C[C@@H]2O[C@@H]3C=C(C)[C@@]4(Cc5c(c(C)c(C)oc5=O)O4)[C@]4(C)CC[C@@H]1[C@@]2(C)[C@@H]34 | 25 | 0 | 100 |  | 95 |  |
| CC(=O)/C(C)=C1/C[C@H]2O[C@@H](O)[C@]34CC[C@H]5C(C)=CC(=O)C[C@@H]6O[C@H](C=C(C)[C@@]23O1)[C@@H]4[C@@]65C | 31 | 15 | 96 |  | 92 |  |
| CC1=CC(=O)C=C[C@]2(C)[C@H]3[C@@H](O)C=C(C)[C@@]4(Cc5c(c(C)c(C)oc5=O)O4)[C@]3(C)CC[C@@H]12 [BREVIONE F] | 79 | 5 | 100 | 12.9 | 97 |  |
| CC(=O)O[C@@H]1O[C@@H]2C/C(=C(/C)C(C)=O)O[C@]23C(C)=C[C@H]2O[C@H]4CC(=O)C=C(C)[C@@H]5CC[C@@]13[C@H]2[C@@]45C | 34 | 57 | 100 |  | 92 |  |
| CC1=C[C@H](O)[C@@H]2[C@@]3(C)[C@H](O)C(=O)[C@H](O)C(C)(C)[C@@H]3CC[C@@]2(C)[C@]12Cc1c(c(C)c(C)oc1=O)O2 | 35 | 11 | 100 |  | 93 |  |
| CC(C)(C)c1ccc(S(=O)(=O)/C=C/C#N)cc1 [BAY-11-7085] | 77 | 99 | 100 | 13.3 | 99 | 0.74 |
| CC1=CC(=O)C=C[C@]2(C)[C@H]3[C@@H](O)[C@@H]4O[C@]4(C)[C@@]4(Cc5c(c(C)c(C)oc5=O)O4)[C@]3(C)CC[C@@H]12 | 63 | 69 | 100 |  | 99 | 10.3 |
| CC1=CC[C@@H]2[C@@]3(C)C=CC(=O)[C@@](C)(CO)[C@@H]3CC[C@@]2(C)[C@]12Cc1c(c(C)c(C)oc1=O)O2 | 49 | 14 | 87 |  | 97 |  |
| CC1=C[C@H](O)[C@@H]2[C@@]3(C)C[C@@H](O)C(=O)C(C)(C)[C@@H]3CC[C@@]2(C)[C@]12Cc1c(c(C)c(C)oc1=O)O2 | 38 | 0 | 100 |  | 93 |  |
| CC1=CC(=O)C=C[C@]2(C)[C@H]3C(=O)C=C(C)[C@]4(Oc5c(C)c(C)oc(=O)c5[C@@H]4O)[C@]3(C)CC[C@@H]12 | 47 | 46 | 91 |  | 98 |  |
| CC1=CC(=O)C=C[C@]2(C)[C@H]3CC=C(C)[C@@]45Oc6c(C)c(C)oc(=O)c6[C@@H]4O[C@@H](O)[C@@]35CC[C@@H]12 | 69 | 28 | 91 |  | 93 |  |
